The text below walks through data of patent US20150159167A1, “Plants Tolerant to HPPD Inhibitor Herbicides” (Bayer CropScience AG, priority 2009, published 2015).

Experiment [1] relates to Synechococcus sp. HPPD "SEQ ID No. 5". As to the kind of experiment: HPPD activity in presence of HPPD inhibitors (pI50, % inhibition). The format is biochemical. The source says: In this content, pI50-value means the log value of the concentration of inhibitor necessary to inhibit 50% of the enzyme activity in molar concentration.
Experiment [2] has as its system tobacco calli containing HPPD SEQ ID No. 7 (Synechococcus sp.). As to the kind of experiment: Rooting of calli on media with tembotrione. The format is cell-based, Nicotiana tabacum. Particulars: 6 to 12 weeks. As to the method: The leaf disks were co-cultivated for 2 days with Agrobacterium tumefaciens cells containing either the binary vector FMP38ebv or AtHPPDbv. Then the leaf disks were transferred to a media allowing the regeneration of shoots for 6 weeks on MS (Musharige and Skoog, (1962), Physiol Plant 15(3): 473-497) media supplemented with BAP ([…]; Benzylaminopurine), carbenicillin ([…]), cefotaxine ([…]), kanamycin (75 mg/mL) and tembotrione (10^−6 M)
Regenerated calli were transferred on media to induce the development of roots for 6 to 12 weeks: MS (1/2), supplemented with carbenicillin (250 mg/mL), cefotaxine (250 mg/mL), kanamycin (75 mg/mL), and tembotrione (10^−6 M).
Regenerated shoot calli from a cell transformed with a nucleic acid sequence encoding an HPPD comprising SEQ ID No. 11 (Arabidopsis thaliana) or SEQ ID No. 7 (Synechococcus sp.) were transferred to a media inducing root growth which media was further supplemented with the HPPD inhibitor tembotrione for 6 to 12 weeks.

The test system of experiment [3] is T1 tobacco plants containing FMP38e (Synechococcus sp. HPPD FMP38). Description: Glasshouse trial, herbicidal damage after spray. The settings on record: 7 DAT, 100 gAI/ha spray. The format is in vivo, Nicotiana tabacum. As to the method:
T0 Tobacco plants containing either the gene from Arabidopsis coding for HPPD or the gene FMP38e from Synechococcus sp. coding for FMP38 HPPD, mentioned above (Example3), were transferred to the glasshouse (28/20° C.), to develop further and produce seeds. Those seeds were harvested and put on soil (ED73 mixed with sand and osmocote Pro) to germinate in the glasshouse (28/20° C.). Three to four weeks later, plantlets were transferred to single pots containing the soil mentioned above. Two weeks later, plants of a size 4-6 cm diameter were sprayed with either • tembotrione at 100 gAI/ha prepared from a WP20 (wettable powder 20%) formulation supplemented with ammonium sulfate and methyl ester raps oil, or • isoxaflutole at 100 gAI/ha prepared from a WP20 formulation supplemented with ammonium sulfate and methyl ester raps oil, or • “blind formulation” made from a WP20 formulation without active ingredient (AI) supplemented with ammonium sulfate and methyl ester raps oil, and were then transferred to a growth chamber with adequate light conditions (20000 Lux). […]

Experiment [4] relates to T0 tobacco plants containing FMP38t. As to the kind of experiment: Response of T0 tobacco plants expressing the FMP38 HPPD to tembotrione. The format is in vivo, Nicotiana tabacum. The settings on record: 100 g AI/ha, two weeks after the treatment. The text has this: As an example, rooted plants containing the T-DNA PromCaMV35S-OTP-HIS6-FMP38t-TerCaMV35S, will be transferred to the greenhouse under standard growth conditions. Following a period of acclimation of two weeks, the T0 plants will be treated with a mixture containing 100 g tembotrione/ha prepared from a WP20 (wettable powder 20%) formulation supplemented with ammonium sulfate and methyl ester raps oil. Two weeks after the treatment, the symptoms due to the application of the herbicides will be evaluated. The plants are classified in four categories. The treated plants evaluated as “0” are looking like the untreated tobacco plants. The plants evaluated as “1” display temporarily light bleaching phenotype due to the application of the herbicides. The plants evaluated as “2” display permanent light to strong bleaching symptoms. Finally the plants evaluated as “3” are looking like wild type tobacco plants submitted to the same treatment.

In experiment [5] the test system is rice shoots transformed with FMP38e. As to the kind of experiment: Bleaching of rice shoots on MS/2 with tembotrione. The format is in vivo. The settings on record: evaluation 2 weeks later. As to the method: Rice transformation was achieved using methods well known in the art. Briefly, the Agrobacterium tumefaciens mediated transformation of rice was performed using immature embryos, from the restorer line 6G4317. Briefly, panicles from donor plants were harvested 8-12 days after pollination. The lemma of the immature seed was removed. Seeds were thereafter sterilized using a NaOCl based solution and Tween. The seeds were preinduced with […]. Agrobacterium tumefaciens cells are then co-cultivated with the preinduced seeds in presence of acetosyringone for 4 days at 24° C. in the dark. Thereafter, coleoptile from embryos are removed and washed, then put on a media supplemented with phosphinothricin for 3 weeks at 28° C. under a photoperiod rhythm of 16 hours. Then the growing calli were cut off from the embryos, and transferred to fresh media containing triacillin, phosphinothricin, L-proline and copper (II) sulfate.
For each callusline and per Tembotrione concentration, 3 shoots, and randomly isolated from different callus pieces, were transferred to MS/2 with Tembotrione. As a general rule, transfer of the shoots from regeneration medium to MS/2 occurred 9 weeks after calli had been put on regeneration medium.
Cultures were incubated at 26.5° C. (16 hrs. photoperiod) and evaluation of symptoms occurred 2 weeks later.
New developing leaves of the shoots transferred have been scored on the basis of bleaching and categorized in 3 groups:
a) no bleaching b) intermediate bleaching c) complete bleaching
Within the category ‘intermediate bleaching’ a distinction has been made between shoots having new leaves showing only very little bleaching symptoms and thus tending to green leaves, and shoots with new leaves almost completely bleached.

“And” between values parts separate entries of the source, which are not always exact repeats. Equal entries are not always repeated.

As for `CS(=O)(=O)c1ccc(C(=O)C2C(=O)CCCC2=O)c(Cl)c1COCC(F)(F)F` [Tembotrione, 2-[2-chloro-4-(methylsulfonyl)-3-[(2,2,2,-tri-fluoroethoxy)methyl]benzoyl]-1,3-cyclo-hexanedione], the pI50 in experiment [1] (2 mM HPP, 3 minutes incubation) is 5.6. Also, the percentage of inhibition in experiment [1] (5.0 × 10^−6 M inhibitor, compared to activity in absence of inhibitor) was determined as 79%. Further, the “% Elongation & rooting on 10^−6 M tembotrione” value in experiment [2] is 80%. In addition, the “% injury” value in experiment [3] (line 34, one value per plant) is 30%. In experiment [3] (line 39, one value per plant), the “% injury” value was 0% and 5%. For the same compound, in experiment [4], the “number of plants in category 0 (looking like the untreated tobacco plants)” value is given as 1, the “number of plants in category 1 (temporarily light bleaching phenotype)” value is listed as 1 and the “number of plants in category 3 (looking like wild type tobacco plants submitted to the same treatment)” value is reported as 14. Moreover, in experiment [5] (1 μM), the “No of shoots completely bleached” value was 0, the “No of shoots with intermediate bleaching” value is recorded as 4 and the “No of shoots without bleaching” value amounted to 38. Also, in experiment [5] (5 μM), the “No of shoots with intermediate bleaching” value was 35 and the “No of shoots without bleaching” value stood at 3.
